# Tested on: CVD (CHD or stroke)
# Assay: CARE: SNP by pravastatin treatment interaction, logistic regression (synergy index), CVD endpoint
# Assay type: in vivo, human
# Details: CARE
# From the text: CARE was a secondary prevention trial and WOSCOPS was a primary prevention trial.
# The CHD endpoint was defined in the analyses herein of CARE as a composite endpoint of fatal CHD, definite non-fatal MI, or revascularization, and was defined in the analyses herein of WOSCOPS as a composite endpoint of death from CHD, nonfatal MI, or revascularization. In both the CARE and WOSCOPS analyses herein, the CVD endpoint was defined as a composite endpoint of CHD or stroke. […] Revascularization, which can include percutaneous transluminal coronary angioplasty (PTCA), stent placement, and coronary artery bypass graft (CABG), are medical interventions that indicate the presence of CHD.
# Cohort and case-only study designs were used to identify SNPs associated with response to statin treatment.
# For each SNP, a logistic regression model having treatment status as the dependent variable and SNP as the independent predictor variable was performed, with terms for age, sex and race included in the model as covariates. The anti-log of the regression coefficient corresponding to the SNP is an estimate of the synergy index (SI) (Davis et al., “Imputing gene-treatment interactions when the genotype distribution is unknown using case-only and putative placebo analyses-a new method for the Genetics of Hypertension Associated Treatment (GenHAT) study”, Statistics in Medicine 23: (2004), pages 2413-2427). The SI is a ratio of odds ratios: for example in the CARE and WOSCOPS studies, the SI represents the factor by which the odds-ratio of statin treatment, compared with placebo, among major homozygous individuals is multiplied by in order to obtain the odds-ratio of treatment vs. placebo among heterozygous individuals; and multiplied by a second time to obtain the odds-ratio of treatment vs. placebo in minor homozygous individuals. […] In a randomized clinical trial, genotype and treatment are independent by design.
compound,measurement,setting,value
"CC[C@H](C)C(=O)O[C@H]1C[C@H](O)C=C2C=C[C@H](C)[C@H](CC[C@@H](O)C[C@@H](O)CC(=O)O)[C@H]21 [Pravastatin, pravastatin]","OR (synergy index, SNP x pravastatin treatment interaction)","rs152707 allele A, model ADD, Imputed",0.684
same,"OR (synergy index, SNP x pravastatin treatment interaction)","rs152712 allele C, model ADD, Genotyped",0.6783
same,OR (SNP x pravastatin interaction),"rs208026 allele A, DOM model, Genotyped",1.457
same,OR (SNP x pravastatin interaction),"rs208029 allele T, DOM model, Imputed",1.41
same,OR (SNP x pravastatin interaction),"rs208757 allele G, DOM model, Imputed",1.423
same,OR (SNP x pravastatin interaction),"rs229775 allele A, REC model, Imputed",0.3933
same,OR (SNP x pravastatin interaction),"rs229815 allele T, REC model, Imputed",0.4053
same,OR (SNP x pravastatin interaction),"rs229829 allele C, REC model, Imputed",0.5066
same,OR (SNP x pravastatin interaction),"rs229831 allele A, REC model, Imputed",0.3945
same,OR (SNP x pravastatin interaction),"rs238252 allele G, ADD model, Imputed",1.66
same,OR (SNP x pravastatin interaction),"rs238252 allele G, DOM model, Imputed",1.848
same,"OR (synergy index, SNP x pravastatin treatment interaction)","rs1444741 allele A, model DOM, Imputed",0.6595
same,"OR (synergy index, SNP x pravastatin treatment interaction)","rs1449916 allele C, model DOM, Imputed",0.5892
same,"OR (synergy index, SNP x pravastatin treatment interaction)","rs1459523 allele A, model ADD, Imputed",1.366
same,"OR (synergy index, SNP x pravastatin treatment interaction)","rs1476714 allele A, model DOM, Imputed",0.6618
same,"OR (synergy index, SNP x pravastatin treatment interaction)","rs1486723 allele C, model REC, Imputed",0.4458
same,"OR (synergy index, SNP x pravastatin treatment interaction)","rs1495375 allele A, model ADD, Imputed",0.741
same,"OR (synergy index, SNP x pravastatin treatment interaction)","rs1495375 allele A, model DOM, Imputed",0.6085
same,"OR (synergy index, SNP x pravastatin treatment interaction)","rs1495381 allele T, model REC, Imputed",1.776
same,"OR (synergy index, SNP x pravastatin treatment interaction)","rs1498061 allele C, model ADD, Imputed",0.4939
same,"OR (synergy index, SNP x pravastatin treatment interaction)","rs1498992 allele G, model DOM, Imputed",0.5981
same,"OR (synergy index, SNP x pravastatin treatment interaction)","rs1499001 allele T, model DOM, Imputed",0.5667
same,"OR (synergy index, SNP x pravastatin treatment interaction)","rs1512988 allele A, model ADD, Imputed",0.7274
same,"OR (synergy index, SNP x pravastatin treatment interaction)","rs1512988 allele A, model DOM, Imputed",0.6077
same,"OR (synergy index, SNP x pravastatin treatment interaction)","rs1512989 allele T, model ADD, Imputed",0.7274
same,"OR (synergy index, SNP x pravastatin treatment interaction)","rs1512989 allele T, model DOM, Imputed",0.6077
same,"OR (synergy index, SNP x pravastatin treatment interaction)","rs1512991 allele T, model ADD, Imputed",0.7286
same,"OR (synergy index, SNP x pravastatin treatment interaction)","rs1512991 allele T, model DOM, Imputed",0.6184
same,"OR (synergy index, SNP x pravastatin treatment interaction)","rs1524306 allele C, model ADD, Imputed",1.366
same,"OR (synergy index, SNP x pravastatin treatment interaction)","rs1524310 allele G, model ADD, Imputed",1.366
same,"OR (synergy index, SNP x pravastatin treatment interaction)","rs1527059 allele A, model DOM, Imputed",0.5689
same,"OR (synergy index, SNP x pravastatin treatment interaction)","rs1535866 allele G, model DOM, Imputed",1.391
same,"OR (synergy index, SNP x pravastatin treatment interaction)","rs1567740 allele T, model ADD, Imputed",0.7274
same,"OR (synergy index, SNP x pravastatin treatment interaction)","rs1567740 allele T, model DOM, Imputed",0.6032
same,"OR (synergy index, SNP x pravastatin treatment interaction)","rs1572573 allele A, model DOM, Imputed",1.748
same,"OR (synergy index, SNP x pravastatin treatment interaction)","rs1577497 allele C, model REC, Imputed",0.4912
same,"OR (synergy index, SNP x pravastatin treatment interaction)","rs1581514 allele T, model ADD, Imputed",1.353
same,"OR (synergy index, SNP x pravastatin treatment interaction)","rs1582321 allele T, model DOM, Imputed",0.5814
same,"OR (synergy index, SNP x pravastatin treatment interaction)","rs1582322 allele A, model DOM, Imputed",0.5859
same,"OR (synergy index, SNP x pravastatin treatment interaction)","rs1582323 allele A, model DOM, Imputed",0.5825
same,"OR (synergy index, SNP x pravastatin treatment interaction)","rs1592485 allele C, model DOM, Imputed",0.5835
same,"OR (synergy index, SNP x pravastatin treatment interaction)","rs1600954 allele T, model ADD, Imputed",1.379
same,"OR (synergy index, SNP x pravastatin treatment interaction)","rs1705261 allele A, model REC, Imputed",1.775
same,"OR (synergy index, SNP x pravastatin treatment interaction)","rs1832222 allele G, model DOM, Imputed",1.612
same,"OR (synergy index, SNP x pravastatin treatment interaction)","rs1861327 allele G, model DOM, Imputed",0.5814
same,"OR (synergy index, SNP x pravastatin treatment interaction)","rs1868581 allele G, model ADD, Imputed",1.366
same,"OR (synergy index, SNP x pravastatin treatment interaction)","rs1874313 allele A, model ADD, Imputed",0.7419
same,"OR (synergy index, SNP x pravastatin treatment interaction)","rs1874313 allele A, model DOM, Imputed",0.615
same,OR (SNP x pravastatin interaction),"rs1876409 allele C, DOM model, Imputed",0.6151
same,OR (SNP x pravastatin interaction),"rs1913201 allele G, ADD model, Imputed",0.7218
same,OR (SNP x pravastatin interaction),"rs1913201 allele G, DOM model, Imputed",0.6464
same,OR (SNP x pravastatin interaction),"rs1936871 allele G, DOM model, Genotyped",0.571
same,OR (SNP x pravastatin interaction),"rs1961157 allele T, REC model, Imputed",0.6068
same,OR (SNP x pravastatin interaction),"rs1987179 allele T, ADD model, Imputed",0.7138
same,OR (SNP x pravastatin interaction),"rs1987179 allele T, DOM model, Imputed",0.6634
same,OR (SNP x pravastatin interaction),"rs1990023 allele T, DOM model, Imputed",0.6462
same,OR (SNP x pravastatin interaction),"rs1995025 allele C, DOM model, Imputed",1.608
same,OR (SNP x pravastatin interaction),"rs2016194 allele G, DOM model, Imputed",0.6626
same,OR (SNP x pravastatin interaction),"rs2023651 allele T, ADD model, Imputed",0.682
same,OR (SNP x pravastatin interaction),"rs2024902 allele A, ADD model, Imputed",1.998
same,OR (SNP x pravastatin interaction),"rs2024902 allele A, DOM model, Imputed",2.076
same,OR (SNP x pravastatin interaction),"rs2025107 allele A, DOM model, Imputed",1.856
same,OR (SNP x pravastatin interaction),"rs2025108 allele T, DOM model, Imputed",1.856
same,OR (SNP x pravastatin interaction),"rs2052428 allele C, DOM model, Imputed",0.5903
same,OR (SNP x pravastatin interaction),"rs2053230 allele C, ADD model, Imputed",0.5414
same,OR (SNP x pravastatin interaction),"rs2062448 allele T, DOM model, Imputed",0.5462
same,OR (SNP x pravastatin interaction),"rs2063420 allele C, REC model, Imputed",1.755
same,OR (SNP x pravastatin interaction),"rs2063591 allele C, ADD model, Imputed",0.7519
same,OR (SNP x pravastatin interaction),"rs2063591 allele C, DOM model, Imputed",0.6237
same,OR (SNP x pravastatin interaction),"rs2095586 allele A, DOM model, Imputed",1.655
same,OR (SNP x pravastatin interaction),"rs2095606 allele A, DOM model, Imputed",0.5466
same,OR (SNP x pravastatin interaction),"rs2102374 allele A, ADD model, Imputed",0.6269
same,OR (SNP x pravastatin interaction),"rs2102374 allele A, DOM model, Imputed",0.5989
same,OR (SNP x pravastatin interaction),"rs2108426 allele C, DOM model, Imputed",0.6626
same,OR (SNP x pravastatin interaction),"rs2110664 allele A, DOM model, Imputed",1.429
